Test results published in ChEMBL document CHEMBL3621085, “Tetrazole regioisomers in the development of nitro group-containing antitubercular agents” (Medchemcomm, 2015).
Converted amounts (≈) assume the structure as drawn.

Assays:
[1] = test system: Mycobacterium kansasii; test: Antimycobacterial activity against Mycobacterium kansasii My 235/80 after 21 days by micromethod; format: functional; conditions: My 235/80, 504 h
[2] = test system: Mycobacterium tuberculosis; test: Antimycobacterial activity against Mycobacterium tuberculosis My 331/88 after 21 days by micromethod; format: functional; conditions: My 331/88, 504 h
[3] = test system: Mycobacterium kansasii; test: Antimycobacterial activity against Mycobacterium kansasii My 235/80 after 7 days by micromethod; format: functional; conditions: My 235/80, 168 h
[4] = test system: Mycobacterium kansasii; test: Antimycobacterial activity against Mycobacterium kansasii 6509/96 after 21 days by micromethod; format: functional; conditions: 6509/96, 504 h
[5] = test system: Salmonella typhimurium; test: Mutagenic activity in Salmonella typhimurium TA98 assessed as induction of reverse mutation at 50 uM; format: toxicity, organism-based; conditions: salmonella enterica subsp. enterica serovar typhimurium
[6] = Cytotoxicity against CHOK1 cells assessed as viability after 24 hrs by MTT assay; format: cell-based; conditions: Cricetulus griseus, CHO-K1, 24 h
[7] = test system: Mycobacterium kansasii; test: Antimycobacterial activity against Mycobacterium kansasii 6509/96 after 7 days by micromethod; format: functional; conditions: 6509/96, 168 h
[8] = test system: Mycobacterium kansasii; test: Antimycobacterial activity against Mycobacterium kansasii 6509/96 after 14 days by micromethod; format: functional; conditions: 6509/96, 336 h
[9] = test system: Salmonella typhimurium; test: Mutagenic activity in Salmonella typhimurium TA100 assessed as induction of reverse mutation at 50 uM; format: toxicity, organism-based; conditions: salmonella enterica subsp. enterica serovar typhimurium
[10] = test system: Mycobacterium tuberculosis; test: Antimycobacterial activity against Mycobacterium tuberculosis My 331/88 after 14 days by micromethod; format: functional; conditions: My 331/88, 336 h
[11] = test system: Mycobacterium kansasii; test: Antimycobacterial activity against Mycobacterium kansasii My 235/80 after 14 days by micromethod; format: functional; conditions: My 235/80, 336 h
[12] = test system: Mycobacterium avium; test: Antimycobacterial activity against Mycobacterium avium My 330/88 after 14 days by micromethod; format: functional; conditions: My 330/88, 336 h
[13] = test system: Mycobacterium avium; test: Antimycobacterial activity against Mycobacterium avium My 330/88 after 21 days by micromethod; format: functional; conditions: My 330/88, 504 h

SMILES | MIC [1] [µM] | MIC [2] [µM] | MIC [3] [µM] | MIC [4] [µM] | Activity [5] | IC50 [6] [µM] | MIC [7] [µM] | MIC [8] [µM] | Activity [9] | MIC [10] [µM] | MIC [11] [µM] | MIC [12] [µM] | MIC [13] [µM]
O=[N+]([O-])c1cc(CSc2nnn(Cc3ccc(Cl)cc3)n2)cc([N+](=O)[O-])c1 | 16 (≈ 6.51 µg/mL) | 2 (≈ 0.814 µg/mL) | 4 (≈ 1.63 µg/mL) | 32 (≈ 13 µg/mL) | Toxic | 301 | 16 (≈ 6.51 µg/mL) | 16 (≈ 6.51 µg/mL) | Toxic | 1 (≈ 0.407 µg/mL) | 8 (≈ 3.25 µg/mL) | 16 (≈ 6.51 µg/mL) | 16 (≈ 6.51 µg/mL)
O=[N+]([O-])c1cc(CSc2nnnn2Cc2ccc(Cl)cc2)cc([N+](=O)[O-])c1 | 4 (≈ 1.63 µg/mL) | 4 (≈ 1.63 µg/mL) | 2 (≈ 0.814 µg/mL) | 8 (≈ 3.25 µg/mL) | Toxic | 94 | 4 (≈ 1.63 µg/mL) | 8 (≈ 3.25 µg/mL) | Toxic | 2 (≈ 0.814 µg/mL) | 2 (≈ 0.814 µg/mL) | 125 (≈ 50.9 µg/mL) | 125 (≈ 50.9 µg/mL)
O=[N+]([O-])c1cc(CSc2nnn(Cc3ccc(Cl)c(Cl)c3)n2)cc([N+](=O)[O-])c1 | 32 (≈ 14.1 µg/mL) | 1 (≈ 0.441 µg/mL) | 8 (≈ 3.53 µg/mL) | 32 (≈ 14.1 µg/mL) |  | 150 | 16 (≈ 7.06 µg/mL) | 32 (≈ 14.1 µg/mL) |  | 1 (≈ 0.441 µg/mL) | 16 (≈ 7.06 µg/mL) | 125 (≈ 55.2 µg/mL) | 125 (≈ 55.2 µg/mL)
O=[N+]([O-])c1ccc(C[Se]c2nnn(Cc3ccccc3)n2)c([N+](=O)[O-])c1 | 32 (≈ 13.4 µg/mL) | 16 (≈ 6.71 µg/mL) | 16 (≈ 6.71 µg/mL) | 62 (≈ 26 µg/mL) |  | 22 | 32 (≈ 13.4 µg/mL) | 32 (≈ 13.4 µg/mL) |  | 16 (≈ 6.71 µg/mL) | 16 (≈ 6.71 µg/mL) | 62 (≈ 26 µg/mL) | 62 (≈ 26 µg/mL)
O=[N+]([O-])c1ccc(C[Se]c2nnnn2Cc2ccccc2)c([N+](=O)[O-])c1 | 125 (≈ 52.4 µg/mL) | 16 (≈ 6.71 µg/mL) | 16 (≈ 6.71 µg/mL) | 125 (≈ 52.4 µg/mL) |  | 8.5 | 16 (≈ 6.71 µg/mL) | 62 (≈ 26 µg/mL) |  | 8 (≈ 3.35 µg/mL) | 32 (≈ 13.4 µg/mL) | 250 (≈ 105 µg/mL) | 250 (≈ 105 µg/mL)
O=[N+]([O-])c1cc(Cn2nnnc2SCc2ccccc2)cc([N+](=O)[O-])c1 | 62 (≈ 23.1 µg/mL) | 8 (≈ 2.98 µg/mL) | 32 (≈ 11.9 µg/mL) | 32 (≈ 11.9 µg/mL) |  | 115 | 16 (≈ 5.96 µg/mL) | 32 (≈ 11.9 µg/mL) |  | 8 (≈ 2.98 µg/mL) | 62 (≈ 23.1 µg/mL) | 125 (≈ 46.5 µg/mL) | 125 (≈ 46.5 µg/mL)
O=[N+]([O-])c1cc(Cn2nnc(SCc3ccccc3)n2)cc([N+](=O)[O-])c1 | 32 (≈ 11.9 µg/mL) | 16 (≈ 5.96 µg/mL) | 16 (≈ 5.96 µg/mL) | 32 (≈ 11.9 µg/mL) |  | 148 | 16 (≈ 5.96 µg/mL) | 32 (≈ 11.9 µg/mL) |  | 16 (≈ 5.96 µg/mL) | 32 (≈ 11.9 µg/mL) | 125 (≈ 46.5 µg/mL) | 125 (≈ 46.5 µg/mL)
O=[N+]([O-])c1cc(CSc2nnnn2Cc2ccc(Cl)c(Cl)c2)cc([N+](=O)[O-])c1 | 4 (≈ 1.77 µg/mL) | 2 (≈ 0.883 µg/mL) | 2 (≈ 0.883 µg/mL) | 8 (≈ 3.53 µg/mL) |  | 140 | 2 (≈ 0.883 µg/mL) | 4 (≈ 1.77 µg/mL) |  | 2 (≈ 0.883 µg/mL) | 4 (≈ 1.77 µg/mL) | 125 (≈ 55.2 µg/mL) | 125 (≈ 55.2 µg/mL)
O=[N+]([O-])c1ccc(CSc2nnnn2Cc2ccccc2)c([N+](=O)[O-])c1 | 62 (≈ 23.1 µg/mL) | 8 (≈ 2.98 µg/mL) | 8 (≈ 2.98 µg/mL) | 62 (≈ 23.1 µg/mL) |  |  | 16 (≈ 5.96 µg/mL) | 32 (≈ 11.9 µg/mL) |  | 8 (≈ 2.98 µg/mL) | 32 (≈ 11.9 µg/mL) | 250 (≈ 93.1 µg/mL) | 250 (≈ 93.1 µg/mL)
O=[N+]([O-])c1cc(Cn2nnc([Se]Cc3ccccc3)n2)cc([N+](=O)[O-])c1 | 32 (≈ 13.4 µg/mL) | 8 (≈ 3.35 µg/mL) | 8 (≈ 3.35 µg/mL) | 32 (≈ 13.4 µg/mL) |  | 118 | 16 (≈ 6.71 µg/mL) | 32 (≈ 13.4 µg/mL) |  | 8 (≈ 3.35 µg/mL) | 16 (≈ 6.71 µg/mL) | 16 (≈ 6.71 µg/mL) | 16 (≈ 6.71 µg/mL)
Cn1nnnc1[Se]Cc1cc([N+](=O)[O-])cc([N+](=O)[O-])c1 | 32 (≈ 11 µg/mL) | 8 (≈ 2.75 µg/mL) | 8 (≈ 2.75 µg/mL) | 32 (≈ 11 µg/mL) |  |  | 16 (≈ 5.49 µg/mL) | 32 (≈ 11 µg/mL) |  | 8 (≈ 2.75 µg/mL) | 32 (≈ 11 µg/mL) | 500 (≈ 172 µg/mL) | 500 (≈ 172 µg/mL)
Cn1nnc([Se]Cc2cc([N+](=O)[O-])cc([N+](=O)[O-])c2)n1 | 8 (≈ 2.75 µg/mL) | 2 (≈ 0.686 µg/mL) | 2 (≈ 0.686 µg/mL) | 4 (≈ 1.37 µg/mL) |  |  | 2 (≈ 0.686 µg/mL) | 4 (≈ 1.37 µg/mL) |  | 1 (≈ 0.343 µg/mL) | 4 (≈ 1.37 µg/mL) | 250 (≈ 85.8 µg/mL) | 250 (≈ 85.8 µg/mL)
O=[N+]([O-])c1cc(Cn2nnnc2[Se]Cc2ccccc2)cc([N+](=O)[O-])c1 | 32 (≈ 13.4 µg/mL) | 8 (≈ 3.35 µg/mL) | 8 (≈ 3.35 µg/mL) | 32 (≈ 13.4 µg/mL) |  | 85 | 16 (≈ 6.71 µg/mL) | 32 (≈ 13.4 µg/mL) |  | 8 (≈ 3.35 µg/mL) | 16 (≈ 6.71 µg/mL) | 32 (≈ 13.4 µg/mL) | 32 (≈ 13.4 µg/mL)
O=[N+]([O-])c1ccc(C[Se]c2nnnn2Cc2ccc([N+](=O)[O-])cc2)cc1 | 125 (≈ 52.4 µg/mL) | 125 (≈ 52.4 µg/mL) | 62 (≈ 26 µg/mL) | 62 (≈ 26 µg/mL) |  |  | 32 (≈ 13.4 µg/mL) | 62 (≈ 26 µg/mL) |  | 62 (≈ 26 µg/mL) | 125 (≈ 52.4 µg/mL) | 250 (≈ 105 µg/mL) | 250 (≈ 105 µg/mL)
Cn1nnnc1SCc1cc([N+](=O)[O-])cc([N+](=O)[O-])c1 | 32 (≈ 9.48 µg/mL) | 8 (≈ 2.37 µg/mL) | 4 (≈ 1.19 µg/mL) | 32 (≈ 9.48 µg/mL) |  |  | 16 (≈ 4.74 µg/mL) | 32 (≈ 9.48 µg/mL) |  | 4 (≈ 1.19 µg/mL) | 16 (≈ 4.74 µg/mL) | 500 (≈ 148 µg/mL) | 1000 (≈ 296 µg/mL)
O=[N+]([O-])c1ccc(CSc2nnn(Cc3ccccc3)n2)c([N+](=O)[O-])c1 | 62 (≈ 23.1 µg/mL) | 4 (≈ 1.49 µg/mL) | 16 (≈ 5.96 µg/mL) | 32 (≈ 11.9 µg/mL) |  | 21 | 8 (≈ 2.98 µg/mL) | 16 (≈ 5.96 µg/mL) |  | 4 (≈ 1.49 µg/mL) | 32 (≈ 11.9 µg/mL) | 32 (≈ 11.9 µg/mL) | 62 (≈ 23.1 µg/mL)
O=[N+]([O-])c1ccc(Cn2nnnc2[Se]Cc2ccccc2)c([N+](=O)[O-])c1 | 62 (≈ 26 µg/mL) | 2 (≈ 0.839 µg/mL) | 32 (≈ 13.4 µg/mL) | 125 (≈ 52.4 µg/mL) |  |  | 16 (≈ 6.71 µg/mL) | 62 (≈ 26 µg/mL) |  | 1 (≈ 0.419 µg/mL) | 62 (≈ 26 µg/mL) | 16 (≈ 6.71 µg/mL) | 32 (≈ 13.4 µg/mL)
O=[N+]([O-])c1ccc(CSc2nnn(Cc3ccc([N+](=O)[O-])cc3)n2)cc1 | 250 (≈ 93.1 µg/mL) | 250 (≈ 93.1 µg/mL) | 250 (≈ 93.1 µg/mL) | 250 (≈ 93.1 µg/mL) |  |  | 250 (≈ 93.1 µg/mL) | 250 (≈ 93.1 µg/mL) |  | 250 (≈ 93.1 µg/mL) | 250 (≈ 93.1 µg/mL) | 250 (≈ 93.1 µg/mL) | 250 (≈ 93.1 µg/mL)
